{"source": "patent US20180185408A1", "about": "“ANTIFUNGAL NYLON-3 POLYMERS AND COMBINATION THERAPY USING THEM TO TREAT FUNGAL INFECTIONS” (priority 2016, published 2018)", "type_in_all_cases": "cell-based", "key": {"Candida lusitaniae [1]": {"system": "Candida lusitaniae", "test": "MIC by broth microdilution (CLSI M27-A3)", "details": "CL3, […]10^5 cells/mL, 30°C, OD600 48 h"}, "Candida albicans": {"system": "Candida albicans", "test": "Minimum fungicidal concentration (MFC), plating after MIC assay", "details": "[…]10^5 cells/mL"}, "Candida lusitaniae [2]": {"system": "Candida lusitaniae", "test": "Minimum fungicidal concentration (MFC), plating after MIC assay", "details": "C. Lusitania (CL3), Sensitive; RPMI 1640 (0.2% Glucose); […]10^5 cells/mL; 30° C."}, "Cryptococcus neoformans [3]": {"system": "Cryptococcus neoformans", "test": "MIC by broth microdilution (CLSI M27-A3)", "details": "[…]10^3 cells/mL"}, "Cryptococcus gattii [4]": {"system": "Cryptococcus gattii", "test": "MIC by broth microdilution (CLSI M27-A3)", "details": "[…]10^3 cells/mL"}, "Cryptococcus neoformans [5]": {"system": "Cryptococcus neoformans", "test": "Minimum fungicidal concentration (MFC), plating after MIC assay", "details": "RPMI 1640 (0.2% Glucose), […]10^3 cells/mL, 37° C."}, "Cryptococcus gattii [6]": {"system": "Cryptococcus gattii", "test": "Minimum fungicidal concentration (MFC), plating after MIC assay", "details": "Sensitive, RPMI 1640 (0.2% Glucose), […]10^3 cells/mL, 37° C."}, "Candida spp.": {"system": "Candida spp.", "test": "MIC and MFC by broth microdilution, summary over Candida strains", "details": "Candida test strains, except resistant strain E4"}, "Cryptococcus spp.": {"system": "Cryptococcus spp.", "test": "MIC and MFC by broth microdilution, summary over Cryptococcus strains"}}, "note": "Where two headings read alike, the source gives them in different places."}
{"molecule": "C[C@@H]1[C@H](O)[C@@H](C)/C=C/C=C/C=C/C=C/C=C/C=C/C=C/[C@H](O[C@@H]2O[C@H](C)[C@@H](O)[C@H](N)[C@@H]2O)C[C@@H]2O[C@](O)(C[C@@H](O)C[C@@H](O)[C@H](O)CC[C@@H](O)C[C@@H](O)CC(=O)O[C@H]1C)C[C@H](O)[C@H]2C(=O)O", "note": "[AMB, amphotericin B]", "values": [{"measurement": "MIC", "setting": "Candida lusitaniae [1]; avg., read-out: MIC", "value": 0.4, "unit": "µM"}, {"measurement": "MIC", "setting": "Candida lusitaniae [1]; trial 1", "value": 0.4, "unit": "µg/mL"}, {"measurement": "MIC", "setting": "Candida lusitaniae [1]; trial 1, read-out: MIC", "value": 0.4, "unit": "µM"}, {"measurement": "MIC", "setting": "Candida lusitaniae [1]; trial 2", "value": 0.4, "unit": "µg/mL"}, {"measurement": "MFC", "setting": "Candida albicans; C. albicans (E4), Amp B Resistant, RPMI 1640 (0.2% Glucose), 30° C.", "value": 12.5, "unit": "µg/mL"}, {"measurement": "MFC", "setting": "Candida albicans; C. albicans (Gu5), Fluconazole Resistant, RPMI 1640 (0.2% Glucose), 30° C.", "value": 1.56, "unit": "µg/mL"}, {"measurement": "MFC", "setting": "Candida albicans; C. albicans (K1), Fluconazole Resistant, RPMI 1640 (0.2% Glucose), 30° C.", "value": 3.13, "unit": "µg/mL"}, {"measurement": "MFC", "setting": "Candida albicans; C. albicans (SCG5314), Sensitive, RPMI 1640 (0.2% Glucose), 30° C.", "value": 1.56, "unit": "µg/mL"}, {"measurement": "MFC", "setting": "Candida albicans; E4, 30°C, avg.", "value": 12.5, "unit": "µg/mL"}, {"measurement": "MFC", "setting": "Candida albicans; E4, 30°C, avg., read-out: MFC", "value": 13.5, "unit": "µM"}, {"measurement": "MFC", "setting": "Candida albicans; E4, 30°C, trial 1", "value": 12.5, "unit": "µg/mL"}, {"measurement": "MFC", "setting": "Candida albicans; E4, 30°C, trial 1, read-out: MFC", "value": 13.5, "unit": "µM"}, {"measurement": "MFC", "setting": "Candida albicans; E4, 30°C, trial 2", "value": 12.5, "unit": "µg/mL"}, {"measurement": "MFC", "setting": "Candida albicans; E4, 30°C, trial 2, read-out: MFC", "value": 13.5, "unit": "µM"}, {"measurement": "MFC", "setting": "Candida albicans; Gu5, 30°C, avg.", "value": 1.6, "unit": "µg/mL"}, {"measurement": "MFC", "setting": "Candida albicans; Gu5, 30°C, avg., read-out: MFC", "value": 1.7, "unit": "µM"}, {"measurement": "MFC", "setting": "Candida albicans; Gu5, 30°C, trial 1", "value": 1.6, "unit": "µg/mL"}, {"measurement": "MFC", "setting": "Candida albicans; Gu5, 30°C, trial 1, read-out: MFC", "value": 1.7, "unit": "µM"}, {"measurement": "MFC", "setting": "Candida albicans; Gu5, 30°C, trial 2", "value": 1.6, "unit": "µg/mL"}, {"measurement": "MFC", "setting": "Candida albicans; Gu5, 30°C, trial 2, read-out: MFC", "value": 1.7, "unit": "µM"}, {"measurement": "MFC", "setting": "Candida albicans; K1, 30°C, avg.", "value": 3.1, "unit": "µg/mL"}, {"measurement": "MFC", "setting": "Candida albicans; K1, 30°C, avg., read-out: MFC", "value": 3.4, "unit": "µM"}, {"measurement": "MFC", "setting": "Candida albicans; K1, 30°C, trial 1", "value": 3.1, "unit": "µg/mL"}, {"measurement": "MFC", "setting": "Candida albicans; K1, 30°C, trial 1, read-out: MFC", "value": 3.4, "unit": "µM"}, {"measurement": "MFC", "setting": "Candida albicans; K1, 30°C, trial 2", "value": 3.1, "unit": "µg/mL"}, {"measurement": "MFC", "setting": "Candida albicans; K1, 30°C, trial 2, read-out: MFC", "value": 3.4, "unit": "µM"}, {"measurement": "MFC", "setting": "Candida albicans; SC5314, 30°C, avg.", "value": 1.6, "unit": "µg/mL"}, {"measurement": "MFC", "setting": "Candida albicans; SC5314, 30°C, avg., read-out: MFC", "value": 1.7, "unit": "µM"}, {"measurement": "MFC", "setting": "Candida albicans; SC5314, 30°C, trial 1", "value": 1.6, "unit": "µg/mL"}, {"measurement": "MFC", "setting": "Candida albicans; SC5314, 30°C, trial 1, read-out: MFC", "value": 1.7, "unit": "µM"}, {"measurement": "MFC", "setting": "Candida albicans; SC5314, 30°C, trial 2", "value": 1.6, "unit": "µg/mL"}, {"measurement": "MFC", "setting": "Candida albicans; SC5314, 30°C, trial 2, read-out: MFC", "value": 1.7, "unit": "µM"}, {"measurement": "MFC", "setting": "Candida lusitaniae [2]", "value": 1.56, "unit": "µg/mL"}, {"measurement": "MIC", "setting": "Cryptococcus neoformans [3]; B3501, 30°C, […]", "value": 0.8, "unit": "µg/mL"}, {"measurement": "MIC", "setting": "Cryptococcus neoformans [3]; B3501, 30°C, […], Table 15", "value": 0.9, "unit": "µM"}, {"measurement": "MIC", "setting": "Cryptococcus neoformans [3]; C21F3, 30°C, OD600 48 h", "value": 0.8, "unit": "µg/mL"}, {"measurement": "MIC", "setting": "Cryptococcus neoformans [3]; C21F3, 30°C, OD600 48 h, Table 15", "value": 0.9, "unit": "µM"}, {"measurement": "MIC", "setting": "Cryptococcus neoformans [3]; C. neoformans (B3501), Sensitive, RPMI 1640 (0.2% Glucose), 37° C.", "value": 0.8, "unit": "µg/mL"}, {"measurement": "MIC", "setting": "Cryptococcus neoformans [3]; C. neoformans (B3501), 30°C", "value": 0.9, "unit": "µM"}, {"measurement": "MIC", "setting": "Cryptococcus neoformans [3]; C. neoformans (C21F3), 30°C", "value": 0.9, "unit": "µM"}, {"measurement": "MIC", "setting": "Cryptococcus neoformans [3]; C. neoformans (H99), Sensitive, RPMI 1640 (0.2% Glucose), 37° C.", "value": 1.6, "unit": "µg/mL"}, {"measurement": "MIC", "setting": "Cryptococcus neoformans [3]; C. neoformans (H99), 30°C", "value": 1.7, "unit": "µM"}, {"measurement": "MIC", "setting": "Cryptococcus neoformans [3]; C. neoformans (JEC21), Sensitive, RPMI 1640 (0.2% Glucose), 37° C.", "value": 0.2, "unit": "µg/mL"}, {"measurement": "MIC", "setting": "Cryptococcus neoformans [3]; C. neoformans (JEC21), 30°C", "value": 0.2, "unit": "µM"}, {"measurement": "MIC", "setting": "Cryptococcus neoformans [3]; H99, 30°C, OD600 48 h", "value": 1.6, "unit": "µg/mL"}, {"measurement": "MIC", "setting": "Cryptococcus neoformans [3]; H99, 30°C, OD600 48 h, Table 15", "value": 1.7, "unit": "µM"}, {"measurement": "MIC", "setting": "Cryptococcus neoformans [3]; JEC21, 30°C, OD600 48 h", "value": 0.2, "unit": "µg/mL"}, {"measurement": "MIC", "setting": "Cryptococcus neoformans [3]; JEC21, 30°C, OD600 48 h, Table 15", "value": 0.2, "unit": "µM"}, {"measurement": "MIC", "setting": "Cryptococcus neoformans [3]; […], RPMI 1640 (0.2% Glucose), 37° C.", "value": 0.8, "unit": "µg/mL"}, {"measurement": "MIC", "setting": "Cryptococcus gattii [4]; C751, 30°C, OD600 48 h", "value": "≤0.2", "unit": "µg/mL"}, {"measurement": "MIC", "setting": "Cryptococcus gattii [4]; C751, 30°C, OD600 48 h, Table 15, read-out: MIC", "value": "≤0.2", "unit": "µM"}, {"measurement": "MIC", "setting": "Cryptococcus gattii [4]; C. gattii (C751), Sensitive, RPMI 1640 (0.2% Glucose), 37° C.", "value": "≤0.2", "unit": "µg/mL"}, {"measurement": "MIC", "setting": "Cryptococcus gattii [4]; C. gattii (C751), 30°C, read-out: MIC", "value": "≤0.2", "unit": "µM"}, {"measurement": "MIC", "setting": "Cryptococcus gattii [4]; C. gattii (WM275), Sensitive, RPMI 1640 (0.2% Glucose), 37° C.", "value": 0.8, "unit": "µg/mL"}, {"measurement": "MIC", "setting": "Cryptococcus gattii [4]; C. gattii (WM276), 30°C, read-out: MIC", "value": 0.9, "unit": "µM"}, {"measurement": "MIC", "setting": "Cryptococcus gattii [4]; WM276, 30°C, OD600 48 h", "value": 0.8, "unit": "µg/mL"}, {"measurement": "MIC", "setting": "Cryptococcus gattii [4]; WM276, 30°C, OD600 48 h, Table 15, read-out: MIC", "value": 0.9, "unit": "µM"}, {"measurement": "MFC", "setting": "Cryptococcus neoformans [5]; C. neoformans (B3501), Sensitive", "value": 0.8, "unit": "µg/mL"}, {"measurement": "MFC", "setting": "Cryptococcus neoformans [5]; C. neoformans (C21F3), Rapamycin Resistant", "value": 0.8, "unit": "µg/mL"}, {"measurement": "MFC", "setting": "Cryptococcus neoformans [5]; C. neoformans (H99), Sensitive", "value": 1.6, "unit": "µg/mL"}, {"measurement": "MFC", "setting": "Cryptococcus neoformans [5]; C. neoformans (JEC21), Sensitive", "value": 0.4, "unit": "µg/mL"}, {"measurement": "MFC", "setting": "Cryptococcus gattii [6]; C. gattii (C751)", "value": 0.8, "unit": "µg/mL"}, {"measurement": "MFC", "setting": "Cryptococcus gattii [6]; C. gattii (WM275)", "value": 3.1, "unit": "µg/mL"}, {"measurement": "MIC and MFC values", "setting": "Candida spp.", "value": "sub-μM"}, {"measurement": "MIC", "setting": "Cryptococcus spp.; Cryptococcus test strains", "value": "~1", "unit": "µM"}, {"measurement": "MFC", "setting": "Cryptococcus spp.; Cryptococcus test strains (FLC: all strains except C21F3)", "value": "~1", "unit": "µM"}]}
